The structures appear in SMILES notation.

The subject of one data set is BM5d proviral DNA. In words: PCR analysis of BM5d proviral DNA in spleen, lymph node and bone marrow. Format: in vivo, C57BL/6 mice. Conditions: for % of inhibition of BM5d proviral DNA, Bonemarrow / % of inhibition of BM5d proviral DNA, Lymphnode / % of inhibition of BM5d proviral DNA, Spleen: after 7 weeks of infection. The source says: The following oligonucleotide primers were used for the amplification of a 141-bp gag gene of defective virus genome (BM5d); 5' primer, 5'-AACCTTCCTCCTCTGCCA-3' (sense) corresponding to nucleotides 1456-1473 and 3' primer, 5'-ACCACCTCTCGGGCTTTC-3' (antisense) corresponding to nucleotides 1579-1596 of the BM5d genome (Chat topadhyay SK, Sengupta D.N., FredricksonT.N., Morse H.C. III, Hartley J.W., "Characteristics and contributions of defective, ecotropic and mink cell focus-inducing viruses in a retrovirus induced immunodeficiency syndrome of mice.", J..Virol. 1991; 65: 4232-41.). A second pair or oligonucleotide primers was used for amplification of 203-bp of the mouse glucose-6-phosphate dehydrogenase (G6PD) gene. This amplification served as an internal control (endogenous standard) for evaluation of the relative BM5d proviral DNA. The nucleotide primers for the amplification were as follows: 5' primer, 5'-[…]-3' (sense) and 3' primer, 5'-[…]-3' (antisense) (Kurdi-Haidar B., Mason P.J., Berrebi A., et al., "Origin and spread of the glucose-6-phosphate dehydrogenase variant (G6PD-Mediterranean) in the Middle East.", Am. J. Hum. Genet. 1990; 47:1013-19.).
Probe D30, which was derived from the 137-bp Smal-Xhol p12 gag fragment of the defective virus genome (DU5H), was kindly provided by P. Jolicoeur (Montreal, Canada) (Aziz D.C., Hanna Z., Jolicoeur P., "Severe immunodeficiency disease induced by a defective murine leukemia virus.", Nature 1989; 338: 505-08).
Total cellular DNA was isolated from the spleens, lymph nodes and bone marrow of uninfected, infected and infected/treated mice by the sodium iodide isopropanol method.
PCR amplifications were performed in a 25 µl final volume using the Perkin Elmer GeneAMP kit (1 mM MgCl2, 2.5 U AmpliTag) with 0.3 µg total cellular DNA and 20 pmol of each primer.
PCR reaction were carried out for 37 cycles at 95°C for 30 sec, 58°C for 30 sec and 72°C for 30 sec with a final extension at 72°C for 10 min.
Products were analyzed by electrophoresis on agarose gel, blotted and hybridized with either the ^32P-labeled D30 or G6PD probe.
The intensity of radiolabeled bands was analyzed and quantified in a GS-250 Molecular Imager™ (Bio-Rad, Hercules, CA, USA). For BM5d proviral DNA detection the relative integration was determined by dividing the intensity of the BM5d bands by the intensity of G6PD bands (Fraternale A., Casabianca A., Rossi L., et al., "Inhibition of murine AIDS by combination of AZT and dideoxycytidine 5'-triphosphate.", J. Acquir. Imm. Def Syndr. and Hum. Retrovir. 1996; 12:164-73). The percentages of inhibition were referred to the infected mice.

For the next data set, the system named is mitochondrial DNA. Nature of the data set: Determination of mitochondrial DNA content. Format: in vivo, C57BL/6 mice. Conditions: treatment C; vs. untreated mice; 10 weeks after infection; not statistically significant. The source says: To detect the mitochondrial DNA a 1544-bp mitochondrial DNA fragment was used as a probe. The mitochondrial DNA probe (kindly provided by Dr. Gadaleta, University of Bari, Italy) spans the region from nucleotide 2578 to 4122 in the complete human mitochondrial DNA. As a result of the high homology between human and mouse mitochondrial DNA this probe recognizes human and mouse sequences equally well (data not shown) (Bibb M.J., Van Etten R.A., Wright C.T., Walberg M.W., Clayton D.A., "Sequence and gene organization of mouse mitochondrial DNA.", Cell 1981; 26:167-80).
Total cellular DNA (4 µg) was digested with the restriction enzyme BamHI (Boehringer, Milan, Italy), analyzed on 0.8% agarose gel, blotted and hybridized with the 1544-bp mitochondrial probe (Brandi G., Casabianca A., Schiavano G.F., et al., "Efficacy and toxicity of long-term administration of 2',3'-dideoxycytidine in the LP-BM5 murine induced immunodeficiency model.", Antiviral Chem. Chemother. 1995; 6:153-61.). […]
Finally, the long term toxicity of Fludara in MAIDS was evaluated. […] Thus, the mitochondrial DNA content in Fludara treated mice was evaluated and only treatment C causes a slight reduction of mitochondrial DNA content (20% vs. untreated mice) although this was not statistically significant. […] The relative amount of mt DNA was determined as described in experimental procedures. […]

The mark [1] stands for this setting: group a: 3.0 mg i.p. once a day for 5 consecutive days, 4 weeks.
Setting [2] is: group b: 3.0 mg i.p. twice a day for 5 consecutive days, 4 weeks.
Where [3] appears, read: group c: 10 mg in drinking water for 5 consecutive days, 4 weeks.
Where [4] appears, read: group d: 15 mg in drinking water for 5 consecutive days, 4 weeks.
The mark [5] stands for this setting: treatment c: after 6 weeks of infection 3 mg F-ara-AMP i.p. twice a day, 5 consecutive days, 4 weeks, at 10 weeks after infection.
Setting [6] is: treatment g: after 6 weeks of infection 3 mg F-ara-AMP i.p. twice a day 4 weeks, then interrupted, at 15 weeks after infection.

On to `Nc1nc(F)nc2c1ncn2[C@@H]1O[C@H](COP(=O)(O)O)[C@@H](O)[C@@H]1O` [F-ara-AMP, Fludarabine phosphate], for which, in the data set with BM5d proviral DNA (setting [1]), the “% of inhibition of BM5d proviral DNA, Bonemarrow” value (“% of inhibition … Bonemarrow” below) is given as 0%; the “% of inhibition of BM5d proviral DNA, Lymphnode” value (shortened to “% of inhibition … Lymphnode”) worked out at 19.76±11.10 %; the “% of inhibition of BM5d proviral DNA, Spleen” value (“% of inhibition … Spleen” below) is on record as 25.74±17.54%. In the data set with BM5d proviral DNA (setting [2]), the “% of inhibition … Bonemarrow” value is recorded as 22.94±7.40 %; the “% of inhibition … Lymphnode” value was found to be 54.63±13.12 %; the “% of inhibition … Spleen” value came out at 39.85±16.70 %. Also, in the data set on BM5d proviral DNA (setting [3]), the “% of inhibition … Bonemarrow” value stood at 28.05±8.84 %; the “% of inhibition … Lymphnode” value was found to be 30.33±19.67 %; the “% of inhibition … Spleen” value amounted to 15.16±11.46%. Also, in the data set with BM5d proviral DNA (setting [4]), the “% of inhibition … Bonemarrow” value worked out at 21.69±9.02 %; the “% of inhibition … Lymphnode” value came to 12.16±5.48%; the “% of inhibition … Spleen” value is recorded as 27.40±8.47 %. In the data set with BM5d proviral DNA (setting [5]), the “bone marrow, BM5d proviral DNA copy number (E)” value is given as 19,750±1,485 Proviral DNA molecules per 0.3 µg of total cellular DNA; the “bone marrow, inhibition of BM5d (% vs. Infected) (F)” value was 30.32±5.24 %; the “lymph node, BM5d proviral DNA copy number (C)” value is recorded as 49,500±7758 Proviral DNA molecules per 0.3 µg of total cellular DNA; the “lymph node, inhibition of BM5d (% vs. Infected) (D)” value is listed as 77.46±3.53 %. In the data set with BM5d proviral DNA (setting [5]), the “spleen, BM5d proviral DNA copy number (A)” value is recorded as 37,900±15,717 Proviral DNA molecules per 0.3 µg of total cellular DNA and the “spleen, inhibition of BM5d (% vs. Infected) (B)” value is listed as 74.27 ± 10.67 %. Besides, in the data set on BM5d proviral DNA (setting [6]), the “bone marrow, BM5d proviral DNA copy number (E)” value is listed as 33,900±3,736 Proviral DNA molecules per 0.3 µg of total cellular DNA; the “lymph node, BM5d proviral DNA copy number (C)” value is recorded as 180,000±8,544 Proviral DNA molecules per 0.3 µg of total cellular DNA; the “lymph node, inhibition of BM5d (% vs. Infected) (D)” value amounted to 34.00±3.13 %; the “spleen, BM5d proviral DNA copy number (A)” value is 135,000±47,444 Proviral DNA molecules per 0.3 µg of total cellular DNA. In the data set on BM5d proviral DNA (setting [6]), the “spleen, inhibition of BM5d (% vs. Infected) (B)” value was found to be 31.47±24.08%. Further, the “reduction of mitochondrial DNA content” value with mitochondrial DNA was determined as 20%.

The values above are taken from patent EP0987025A1, “Pharmaceitical composition or composition package containing a pyrimidine nucleoside analogue and a purine nucleoside analogue” (priority 1998, dated 2000).
